Experimental data from publication PMC6337485, “Olive Biophenols Reduces Alzheimer’s Pathology in SH-SY5Y Cells and APPswe Mice” (International Journal of Molecular Sciences, 2018).
pIC50: −log10 of the molar value. Like-named read-outs stand apart in the source and are kept apart here.

Columns and labels:
[1] = biological target: T1, Aβ42 fibrils (Homo sapiens, UniProt P05067); assay: Thioflavin-T (ThT) fluorometric assay, Aβ42 fibril inhibition; type: biochemical; details: for Thioflavin-T Assay % Inhibition: highest concentration, 1000 µM standard
T1 sequence (P05067 672-713 limits assumed): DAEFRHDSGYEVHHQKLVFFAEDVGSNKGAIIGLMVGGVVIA

[2] = biological target: T1, Aβ42 fibrils; assay: Congo red binding assay, Aβ42 fibril inhibition; type: biochemical; details: for Congo-Red Assay % Inhibition: highest concentration, 1000 µM standard
[3] = system: SH-SY5Y cells
[4] = system: SH-SY5Y cells; assay: Aβ42 induced SH-SY5Y cells toxicity and olive biophenols treatment (MTT viability); details: 1000 µM standard, 24 h pre-incubation, then 25 µM Aβ42 for 24 h
[5] = system: SH-SY5Y cells; remark: listed apart in the source
[6] = biological target: T1, Aβ42 fibrils; assay: Transmission electron microscope (TEM) imaging of Aβ42 fibrils with olive biophenols; type: biochemical; details: biophenol ≥200 µM, 20 µM Aβ42 fibrils, 24 h, 37 °C
Protocol: Ten µL aliquot of each sample was spotted onto a glow-discharged, carbon-coated formvar grid and incubated for 30 min. The droplet then was displaced with an equal volume of 2.5% glutaraldehyde (v/v) and incubated for an additional 5 min. Finally, the grid was stained with 10 μL of 3% 0.22 µm filtered uranyl acetate (v/v) twice, and the solution was gently wicked off using Whatman’s grade-1 qualitative filter paper and the grid was then air-dried. Samples were examined by using a Hitachi H7100FA TEM (Hitachi, Japan) at the Centre for Advanced Microscopy, Australian National University, Canberra. All the images were captured at a voltage of 125 kV and an instrumental magnification of 2000×.

[7] = system: BACE-1 enzyme; set-up: method as in PMID 29772299; details: among olive biophenols; cited from earlier work
[8] = system: SH-SY5Y cells; set-up: method as in PMID 29109370; details: cited from earlier work
[9] = system: SH-SY5Y cells; details: human, 1000 µM
[10] = system: SH-SY5Y cells; details: human, 1000 µM; remark: listed apart in the source
[11] = standard biophenols 10–1000 µM, pre-formed Aβ42 fibril, 2 h, room temperature
[12] = 1000 µM standard, 24 h pre-incubation, then 25 µM Aβ42 and 200 µM L-DOPA for 24 h
[13] = 1000 µM standard, 24 h pre-incubation, then 25 µM Aβ42 and 200 µM copper for 24 h

Row | Thioflavin-T Assay IC50 [1, 11] | pIC50 [1, 11] | pIC50 ([2]; standard biophenols 10–1000 µM, pre-formed Aβ42 fibril, 2 h, room temperature, read-out: Congo-Red Assay IC50) | Structure (SMILES) | Congo-Red Assay IC50 [2, 11] | Aβ-L-DOPA-SH-SY5Y Toxicity % Viability [3, 12] [%] | Aβ-SH-SY5Y Toxicity % Viability [4] [%] | Aβ-Cu-SH-SY5Y Toxicity % Viability [5, 13] [%] | Thioflavin-T Assay % Inhibition [1] [%] | Congo-Red Assay % Inhibition [2] [%] | pIC50 ([2]; read-out: Congo-Red Assay IC50) | pIC50 [1] | Effect on formed Aβ42 fibrils (TEM) [6] | BACE-1 enzyme inhibition [7] | pIC50 [2] | Protection of SH-SY5Y cells against Cu-induced toxicity [8] | Aβ-Cu-SH-SY5Y Toxicity % Viability ([5]; human, SH-SY5Y neuroblastoma cells, 1000 µM) [%] | Aβ-SH-SY5Y Toxicity % Viability [9] [%] | Aβ-Cu-SH-SY5Y Toxicity % Viability [10] [%] | Aβ-L-DOPA-SH-SY5Y Toxicity % Viability ([3]; human, 1000 µM) [%]
1 | unable to achieve IC50 value | – | – | O=C(O)/C=C/c1ccc(O)c(O)c1 [Caffeic acid (CA), Caffeic acid] | unable to achieve IC50 value | 67 ± 0.43 | 62 ± 0.53 | 62 ± 0.93 | – | – | – | – | – | – | – | – | – | – | – | –
2 | unable to achieve IC50 value | – | – | OCCc1ccc(O)c(O)c1 [Hydroxytyrosol (HT), Hydroxytyrosol] | – | 64 ± 1.02 | 60 ± 1.00 | 60 ± 0.84 | 45 ± 0.47 | 50 ± 0.4 | 4.01 | – | – | – | – | – | – | – | – | –
3 | – | – | – | O=c1cc(-c2ccc(O)c(O)c2)oc2cc(O)cc(O)c12 [Luteolin (LU), Luteolin] | – | 69 ± 0.87 | 65 ± 0.39 | 67 ± 0.52 | 64 ± 0.4 | 61 ± 0.33 | 4.33 | 4.43 | – | – | – | – | – | – | – | –
4 | – | 4.81 | 4.84 | CC(Cc1ccc(O)c(O)c1)C(C)Cc1ccc(O)c(O)c1 (stereo not shown) [Nordihroguaretic acid (NDGA), Nordihydroguaiaretic acid, reference compound] | – | – | – | – | 70 ± 0.5 | 69 ± 0.4 | – | – | – | – | – | – | – | – | – | –
5 | – | – | – | C/C=C1/[C@H](O[C@@H]2O[C@H](CO)[C@@H](O)[C@H](O)[C@H]2O)OC=C(C(=O)OC)[C@H]1CC(=O)OCCc1ccc(O)c(O)c1 [Oleuropein (OL), Oleuropein] | – | 74 ± 0.23 | 68 ± 0.69 | 76 ± 1.61 | 61 ± 0.33 | 65 ± 0.3 | 4.44 | 4.64 | significant reduction in both the size and number of fibrils | strongest inhibitor | – | – | – | – | – | –
6 | – | – | – | O=c1c(O)c(-c2ccc(O)c(O)c2)oc2cc(O)cc(O)c12 [Quercetin (QU), Quercetin] | – | – | – | – | 57 ± 0.34 | 55 ± 0.71 | – | 4.34 | moderate reduction in fibril formation | – | 4.13 | rescue SH-SY5Y cells | 60 ± 0.52 | – | – | –
7 | – | – | – | C[C@@H]1O[C@@H](O[C@@H]2[C@@H](O)[C@H](OCCc3ccc(O)c(O)c3)O[C@H](CO)[C@H]2OC(=O)/C=C/c2ccc(O)c(O)c2)[C@H](O)[C@H](O)[C@H]1O [Verbascoside (VB), Verbascoside] | – | – | – | – | 61 ± 0.35 | 57 ± 0.51 | 4.22 | 4.65 | – | strongest inhibitor | – | rescue SH-SY5Y cells | – | 66 ± 1.11 | 70 ± 0.48 | 69 ± 0.66

Row | Structure (SMILES) | Thioflavin-T Assay IC50 [1, 11] | pIC50 [1, 11] | pIC50 ([2]; standard biophenols 10–1000 µM, pre-formed Aβ42 fibril, 2 h, room temperature, read-out: Congo-Red Assay IC50) | Congo-Red Assay IC50 [2, 11] | Aβ-L-DOPA-SH-SY5Y Toxicity % Viability [3, 12] [%] | Aβ-SH-SY5Y Toxicity % Viability [4] [%] | Aβ-Cu-SH-SY5Y Toxicity % Viability [5, 13] [%] | Thioflavin-T Assay % Inhibition [1] [%] | Congo-Red Assay % Inhibition [2] [%] | pIC50 ([2]; read-out: Congo-Red Assay IC50) | pIC50 [1] | Effect on formed Aβ42 fibrils (TEM) [6] | BACE-1 enzyme inhibition [7] | pIC50 [2] | Protection of SH-SY5Y cells against Cu-induced toxicity [8] | Aβ-Cu-SH-SY5Y Toxicity % Viability ([5]; human, SH-SY5Y neuroblastoma cells, 1000 µM) [%] | Aβ-SH-SY5Y Toxicity % Viability [9] [%] | Aβ-Cu-SH-SY5Y Toxicity % Viability [10] [%] | Aβ-L-DOPA-SH-SY5Y Toxicity % Viability ([3]; human, 1000 µM) [%]
8 | C[C@@H]1O[C@@H](OC[C@H]2O[C@@H](Oc3c(-c4ccc(O)c(O)c4)oc4cc(O)cc(O)c4c3=O)[C@H](O)[C@@H](O)[C@@H]2O)[C@H](O)[C@H](O)[C@H]1O [Rutin (RU), Rutin] | unable to reach the IC50 concentration | – | – | unable to achieve IC50 value | 57 ± 0.85 | 59 ± 0.59 | 54 ± 0.71 | 49 ± 0.25 | 48 ± 0.33 | – | – | – | – | – | – | – | – | – | –
